Data: patent US11033520B2, “Liposomal anticancer compositions” (IriSys, LLC, priority 2016, dated 2021)

Experiments:
[1] = Total doxorubicin content, recovery and encapsulation efficiency of liposomal suspension (HPLC); type: physicochemical; conditions: 50:1 lipid/drug
Procedure: All HPLC was performed using an Agilent 1260 Infinity system, equipped with a G13110B pump, 01329B autosampler, G1316A column compartment, and a G1315D diode-array detector. OpenLab CDS (EZChrom edition) software controlled all modules and was used for analysis and reporting of chromatography. A Phenomenex Luna C18 column (5μ, 150×4.6 mm; part #00G-4252-E0) was used for all analyses.
Chromatographic analysis of doxorubicin (DOX) was performed on the Agilent 1260 Infinity system using a C18 column (see above) with a column temperature of 40° C. and sample temperature at ambient conditions (˜25° C.). All mobile phase reagents were filtered with a 0.45 μm filter membrane prior to use. HPLC grade acetonitrile was from EMD Millipore. […] Mobile phase flow rate was set to 1.0 mL/min with a run time of 15 minutes. The diode array detector was operated at 487 nm with a bandwidth of 4 nm. Injection volume was set to 10 μL.
Standard stock solution of doxorubicin was prepared in a 0.9% saline, or methanol, or water solution (1 mg/mL). Calibration standards were prepared by diluting the stock solution in anhydrous methanol to bracket the target concentration for analysis. For this study, the doxorubicin solution was diluted with anhydrous methanol or IPA to the final concentration 50 μg/mL, 100 μg/mL and 200 μg/mL; respectively. Samples of liposomal suspension were also diluted with anhydrous methanol or IPA by a factor of 8 or 10 times prior to analysis.
Determination of doxorubicin in liposomal suspension. Followed doxorubicin loading liposomal suspension was subjected to 5× TFF to majorly remove free (not encapsulated) doxorubicin. To determine total doxorubicin concentration at TO (within one week of MFD) TFF washed liposomes were diluted with methanol or IPA and subjected to HPLC analysis. Doxorubicin content, percent of recovery (doxorubicin content in liposomal suspension relative to doxorubicin free base concentration used for remote loading), and encapsulation efficiency (%) are presented in the Table 9. Encapsulation efficiency (%) represents the difference between doxorubicin recovery (%) and free doxorubicin (%).

[2] = counter ion; cited from earlier work
Hela cells = test: cells; type: cell-based; conditions: Homo sapiens, read-out: Hela, CC50, μM
Procedure: (§1) Hela cells (HeLa (ATCC CCL-2). Cells were plated in 96 well plates at the density 25K cells per well. Doxorubicin hydrochloride, Doxil®, or doxorubicin oxalate liposomes were appropriately diluted in Growth medium (DMEM, 5% FBS, 1% antibiotic, 1% HEPES) and added to the cells. After 1 hr of incubation at 37° C. plates were centrifuged, supernatant was removed via aspiration, 100 μL of fresh media were added into each well, and cells were cultured for 48 hrs.
(§2) On the day, 3 to assess cell viability, Alamar Blue solution was prepared in Growth medium (RPMI-1640, 10% FBS) at 1:250 dilution and added directly into cell media. After 6 hrs of incubation at 37° C. the resulting fluorescence was read on a plate reader. The fluorescence of cells that have not received any drug treatment was defined as maximum viability. The fluorescence of cell free media was defined as complete cell death. Data analysis was performed by using Prism nonlinear regression software (GraphPad Software) for the curve-fitting and determination of IC50 values.

nucleus = conditions: within 8 h after administration; cited from earlier work
[3] = test system: Human B lymphoma cell line Ramos (RA 1); test: In vivo study: B lymphoma model in SCID Beige mice; conditions: 3 mg doxorubicin/kg iv x3
Procedure: On the same day prior to administration into animals cell were counted, centrifuged at 12000 rpm, washed with sterile PBS, centrifuged again at 1200 rpm, resuspended in sterile PBS to the final cell count 35×10-per mL. Suspension of cells was administered into animals intravenously via single bolus injection to deliver 5×10^6 cells per mouse.
Four weeks old immune deficient SCID Beige, (Line—CB17.Cg-Prkdc^scidLyst^bg-J/Crl) mice were maintained on Chow diet. At the age of 8 weeks mice were subdivided in 3 groups. On the day 1, 5×10^6 B lymphoma cells were intravenously injected into each mouse (FIG. 2). […] On the day 2 and 3 all treatments were repeated (FIG. 2). Animals were monitored daily and weighed twice a week.
Treatment articles were administered intravenously in 120 μL via single bolus injection to deliver 60 μg of doxorubicin per mouse or ˜3 mg/kg dose.

Daudi cells = test: In vitro cell-based cytotoxicity assay (Alamar Blue), Daudi cells; conditions: Homo sapiens, 1 hr exposure, 48 hrs culture
Procedure: as §1, with “Daudi” for “Hela”, “(ATCC, CCL-213).” for “(HeLa (ATCC CCL-2).”, “100K” for “25K”, “(RPMI-1640, 10% FBS)” for “(DMEM, 5% FBS, 1% antibiotic, 1% HEPES)”
as §2

| SMILES | doxorubicin loading into liposomes with this counter ion (in words) ([1]; remote loading at 70° C.) | further results |
| --- | --- | --- |
| CC(=O)O [Acetate] | no doxorubicin loading was observed | – |
| O=C1O[C@H]([C@@H](O)CO)C(O)=C1O [Ascorbate] | no doxorubicin loading was observed | – |
| N[C@@H](CS)C(=O)O [Cysteinate] | no doxorubicin loading was observed | pKa 1 [2]: 1.96; pKa 2 [2]: 8.18 |
| COc1cccc2c1C(=O)c1c(O)c3c(c(O)c1C2=O)C[C@@](O)(C(=O)CO)C[C@@H]3O[C@H]1C[C@H](N)[C@H](O)[C@H](C)O1.Cl [Doxorubicin Hydrochloride, Doxorubicin hydrochloride] | – | CC50 (Hela cells): 7 µM; drug translocated to / entered the nucleus (nucleus): 26%; survival compared to Placebo (in words) [3]: survivors demonstrated longest MST; death rate ([3]; day 13): 50%; CC50 (Daudi cells): 0.4 µM |
| O=CO [Formate] | no doxorubicin loading was observed | – |
| O=C(O)/C=C/C(=O)O [Fumarate] | no doxorubicin loading was observed | – |
| O=C(O)CC(=O)O [Malonate] | no doxorubicin loading was observed | – |

Now from value to molecule, other results behind:

| doxorubicin loading into liposomes with this counter ion (in words) ([1]; remote loading at 70° C.) | SMILES | further results |
| --- | --- | --- |
| no doxorubicin loading was observed | O=C(O)/C=C\C(=O)O [Maleate] | – |
| no doxorubicin loading was observed | CC(=O)N[C@@H](CS)C(=O)O [N-Acetyl- L-cysteine] | doxorubicin loading into liposomes with this counter ion (in words) ([1]; cold loading at room temperature): no doxorubicin loading was observed; pKa 1 [2]: 3.82 |
| no doxorubicin loading was observed | O=C(O)c1ccccn1 [Picolinate] | – |
| no doxorubicin loading was observed | O=C(O)CCC(=O)O [Succinate] | – |
